According to US12570666B2, “Furoindazole derivatives” (Bayer Aktiengesellschaft, priority 2019, dated 2026):

Molecular target: T1, human GPR84 receptor (Homo sapiens, UniProt Q9NQS5)
T1 construct: frozen aliquots prepared by acCELLerate; host or cells: CHO-K1
Test: cAMP HTRF assay for identification of cellular GPR84 antagonists
Format: cell-based
Settings: CHO-K1 cells stably expressing human GPR84; Forskolin + agonist 6-OAU (EC80); average or median values
From the text: cAMP HTRF® Assay for Identification of Cellular GPR84 Antagonists
By using a Homogenous Time-Resolved Fluorescence (HTRF®) based assay (#62AM5PEJ, Cisbio, Condolet, France) the inhibition of the Gi-coupled GPR84 receptor can be detected. CHO-K1 cells stably expressing human GPR84 receptor (purchased from DiscoveRx, now Eurofins) were used and treated with Forskolin (F6886, Sigma, Germany) to stimulate membrane adenylyl cyclases and thereby unspecific cAMP formation. Activation of the Gi-coupled GPR84 by a natural or small molecule agonist (e.g. 6-n-octyl aminouracile, inhouse) results in inhibition of cellular cAMP formation which can be released again by antagonists to this receptor. Detection and quantification of cellular cAMP levels in this HTRF assay is achieved by interaction between a fluorescent cAMP tracer (cAMP-d2) and an Eu-cryptate labelled anti-cAMP antibody. Following excitation at 337 nm this pairing allows for the generation of a fluorescence resonance energy transfer (FRET) between the partners and results in FRET induced emissions at 665 nm and 620 nm, the latter representing background signal by Eu-cryptate labelled anti-cAMP antibody. Maximal signal is obtained in the absence of any cellular cAMP (no competition for the binding of the tracer to the antibody). Given the combination of the Gi coupling properties of GPR84 and the competitive nature of the detection system agonist treatment should result in an increase in the HTRF signal due to lowered cAMP levels. Any signal decrease in the presence of Forskolin, agonist and compound is indicative of antagonist mediated abrogation of GPR84 signalling.
For the assay, frozen aliquots of CHO-K1 cells expressing hGPR84 (prepared by acCELLerate, Hamburg, Germany) were thawed and a cell suspension (1.67E+06 cells/mL) in assay media (Ham's F12 Nutrient Mix, Thermo Fisher Scientific, Waltham, USA; 5% fetal calf serum, Biomol, Hamburg, Germany) containing cAMP-d2 (dilution 1:20, supplied with the kit #62AM5PEJ, Cisbio, Condolet, France) was prepared. After recovery of cells for 20 minutes at 37° C., 3 μL/well cell suspension including cAMP-d2 were added to a pre-dispensed assay plate (Greiner Bio-One, Kremsmuenster, Austria) containing 50 nl/well test compound in 100% DMSO or 100% DMSO as control. This was followed by a 30 minutes incubation step at room temperature. […] The reaction was stopped by addition of 3 μL/well lysis buffer containing cAMP Eu-Cryptate antibody (dilution 1:20) (both supplied with the kit #62AM5PEJ, Cisbio, Condolet, France). To enable complete lysis, plates were incubated for 60 minutes at room temperature before measurement in an HTRF reader, e.g. a PHERAstar (BMG Labtech, Ortenberg, Germany).
From the fluorescence emissions at 665 nm (FRET) and at 620 nm (background signal of Eu-cryptate) the ratio (emission at 665 nm divided by emission at 620 nm×10000) was calculated and the data were normalized (reaction without test compound, only 100% DMSO=0% inhibition; all other assay components except agonist=100% inhibition). For dose response testing on the same microtiter plate, compounds were tested at 11 different concentrations in the range of 20 μM to 0.07 nM (20 μM, 5.7 μM, 1.6 μM, 0.47 μM, 0.13 μM, 38 nM, 11 nM, 3.1 nM, 0.89 nM, 0.25 and 0.07 nM; dilution series prepared before the assay at the level of the 100-fold conc. stock solutions by serial 1:3.5 dilutions in 100% DMSO) in duplicate values for each concentration. IC50 values were calculated by 4-parameter fitting using a commercial software package (Genedata Screener, Basel, Switzerland).
Examples were tested in selected biological assays one or more times. […]

T1 sequence (Q9NQS5 whole entry): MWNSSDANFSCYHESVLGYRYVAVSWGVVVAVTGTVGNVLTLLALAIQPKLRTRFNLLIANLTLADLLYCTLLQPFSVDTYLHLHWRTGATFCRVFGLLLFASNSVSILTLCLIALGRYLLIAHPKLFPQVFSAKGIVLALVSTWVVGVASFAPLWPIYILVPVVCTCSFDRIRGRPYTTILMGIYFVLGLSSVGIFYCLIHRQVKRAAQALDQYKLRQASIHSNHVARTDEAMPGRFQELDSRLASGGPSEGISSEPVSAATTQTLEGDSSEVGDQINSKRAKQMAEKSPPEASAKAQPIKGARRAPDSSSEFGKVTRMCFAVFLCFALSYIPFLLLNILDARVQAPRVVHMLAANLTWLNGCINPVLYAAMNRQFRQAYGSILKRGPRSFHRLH

Compound	IC50
Cc1c(C(=O)NC[C@@H]2CCCO2)oc2c1-c1nn(CC3COc4ncccc4O3)cc1CC2 (mixture of isomers) [Example 52, 2-[(2R/S)-2,3-dihydro[1,4]dioxino[2,3-b]pyridin-2-ylmethyl]-8-methyl-N-[(2S)-tetrahydrofuran-2-ylmethyl]-4,5-dihydro-2H-furo[2,3-g]indazole-7-carboxamide]	42 nM
Cc1c(C(=O)NCC2CC(C)CO2)oc2c1-c1nn(Cc3ccccn3)cc1CC2 (mixture of isomers) [Example 175]	61 nM
Cc1c(C(=O)NCC2CCC(C)O2)oc2c1-c1nn(Cc3ccccn3)cc1CC2 (mixture of isomers) [Example 176]	118 nM
Cc1c(C(=O)NC[C@@H]2CCCO2)oc2c1-c1nn(CC3CCCCO3)cc1CC2 (mixture of isomers) [Example 190]	238 nM
O=C(NCC1CC(F)(F)CO1)c1oc2c(c1C(F)(F)F)-c1nn(C[C@H]3COCCO3)cc1CC2 (mixture of isomers) [Example 222, N-{[(2±)-4,4-difluorooxolan-2-yl]methyl}-2-{[(2S)-1,4-dioxan-2-yl]methyl}-8-(trifluoromethyl)-4,5-dihydro-2H-furo[2,3-g]indazole-7-carboxamide]	20 nM
CC1CCC(CNC(=O)c2oc3c(c2C(F)(F)F)-c2nn(C[C@H]4COCCO4)cc2CC3)O1 (mixture of isomers) [Example 224, 2-{[(2S)-1,4-dioxan-2-yl]methyl}-N-{[(2±,5±)-5-methyloxolan-2-yl]methyl}-8-(trifluoromethyl)-4,5-dihydro-2H-furo[2,3-g]indazole-7-carboxamide]	18 nM
Cc1c(C(=O)NC[C@@H]2COCCO2)oc2c1-c1nn(Cc3ccccn3)cc1C(C)C2 (mixture of isomers) [Example 246, (4±)-N-{[(2R)-1,4-dioxan-2-yl]methyl}-4,8-dimethyl-2-[(pyridin-2-yl)methyl]-4,5-dihydro-2H-furo[2,3-g]indazole-7-carboxamide]	75 nM
Cc1c(C(=O)NC[C@@H]2CCCO2)oc2c1-c1nn(Cc3ccccn3)cc1C(C)C2 (mixture of isomers) [Example 247, (4+)-4,8-dimethyl-N-{[(2S)-oxolan-2-yl]methyl}-2-[(pyridin-2-yl)methyl]-4,5-dihydro-2H-furo[2,3-g]indazole-7-carboxamide]	66 nM
CC1Cc2oc(C(=O)NC[C@@H]3COCCO3)c(C(F)(F)F)c2-c2nn(Cc3ccccn3)cc21 (mixture of isomers) [Example 250, (4±)-N-{[(2R)-1,4-dioxan-2-yl]methyl}-4-methyl-2-[(pyridin-2-yl)methyl]-8-(trifluoromethyl)-4,5-dihydro-2H-furo[2,3-g]indazole-7-carboxamide]	17 nM
Cc1ccc(Cn2cc3c(n2)-c2c(oc(C(=O)NC[C@@H]4CCCO4)c2C(F)(F)F)CC3C)nc1 (mixture of isomers) [Example 251, (4±)-4-methyl-2-[(5-methyl-2-pyridyl)methyl]-N-[[(2S)-tetrahydrofuran-2-yl]methyl]-8-(trifluoromethyl)-4,5-dihydrofuro[2,3-g]indazole-7-carboxamide]	9 nM
Cc1ccc(Cn2cc3c(n2)-c2c(oc(C(=O)NC[C@@H]4COCCO4)c2C(F)(F)F)CC3C)cn1 (mixture of isomers) [Example 252, (4±)-N-{I(2R)-1,4-dioxan-2-yl]methyl)-4-methyl-2-[(6-methylpyridin-3-yl)methyl]-8-(trifluoromethyl)-4,5-dihydro-2H-furo[2,3-g]indazole-7-carboxamide]	9 nM
Cc1ccc(Cn2cc3c(n2)-c2c(oc(C(=O)NC[C@@H]4CCCO4)c2C(F)(F)F)CC3C)cn1 (mixture of isomers) [Example 253, (4±)-4-methyl-2-[(6-methylpyridin-3-yl)methyl]-N-{[(2S)-oxolan-2-yl]methyl}-8-(trifluoromethyl)-4,5-dihydro-2H-furo[2,3-g]indazole-7-carboxamide]	5 nM

Further lines, results first:

IC50	Compound
29 nM	Cc1c(C(=O)NCC2CCC(C)(C)O2)oc2c1-c1nn(C[C@H]3COCCO3)cc1C1(CC1)C2 (mixture of isomers) [Example 195]
182 nM	Cc1c(C(=O)NCC2COCC(C)(C)O2)oc2c1-c1nn(C[C@H]3COCCO3)cc1C1(CC1)C2 (mixture of isomers) [Example 196]
98 nM	Cc1c(C(=O)NCC2CC(F)(F)CO2)oc2c1-c1nn(C[C@H]3COCCO3)cc1C1(CC1)C2 (mixture of isomers) [Example 197]
94 nM	Cc1c(C(=O)NCC2CCC(C)O2)oc2c1-c1nn(C[C@H]3COCCO3)cc1C1(CC1)C2 (mixture of isomers) [Example 198]
79 nM	Cc1c(C(=O)NCC2CC(C)CO2)oc2c1-c1nn(C[C@H]3COCCO3)cc1C1(CC1)C2 (mixture of isomers) [Example 199]
111 nM	Cc1c(C(=O)NCC2CC3(CC3)CO2)oc2c1-c1nn(C[C@H]3COCCO3)cc1C1(CC1)C2 (mixture of isomers) [Example 200]
80 nM	Cc1c(C(=O)NCC2CCC3(COC3)O2)oc2c1-c1nn(C[C@H]3COCCO3)cc1C1(CC1)C2 (mixture of isomers) [Example 201]
23 nM	CC1(C)CCC(CNC(=O)c2oc3c(c2C(F)(F)F)-c2nn(C[C@H]4COCCO4)cc2CC3)O1 (mixture of isomers) [Example 223, N-{[(2±)-5,5-dimethyloxolan-2-yl]methyl}-2-{[(2S)-1,4-dioxan-2-yl]methyl}-8-(trifluoromethyl)-4,5-dihydro-2H-furo[2,3-g]indazole-7-carboxamide]
145 nM	Cc1c(C(=O)NC[C@@H]2COCCO2)oc2c1-c1nn(C[C@H]3COCCO3)cc1C(C)C2 (mixture of isomers) [Example 248, (4±)-N-{[(2R)-1,4-dioxan-2-yl]methyl}-2-{[(2S)-1,4-dioxan-2-yl]methyl}-4,8-dimethyl-4,5-dihydro-2H-furo[2,3-g]indazole-7-carboxamide]
122 nM	Cc1c(C(=O)NC[C@@H]2CCCO2)oc2c1-c1nn(C[C@H]3COCCO3)cc1C(C)C2 (mixture of isomers) [Example 249, (4±)-2-{[(2S)-1,4-dioxan-2-yl]methyl}-4,8-dimethyl-N-{[(2S)-oxolan-2-yllmethyl}-4,5-dihydro-2H-furo[2,3-g]indazole-7-carboxamide]
6 nM	CC1Cc2oc(C(=O)NC[C@@H]3COCCO3)c(C(F)(F)F)c2-c2nn(C[C@H]3COCCO3)cc21 (mixture of isomers) [Example 254, (4±)-N-{[(2R)-1,4-dioxan-2-yl]methyl}-2-{[(2S)-1,4-dioxan-2-yl]methyl}-4-methyl-8-(trifluoromethyl)-4,5-dihydro-2H-furo[2,3-g]indazole-7-carboxamide]
5 nM	CC1Cc2oc(C(=O)NC[C@@H]3CCCO3)c(C(F)(F)F)c2-c2nn(C[C@H]3COCCO3)cc21 (mixture of isomers) [Example 255, (4±)-2-{[(2S)-1,4-dioxan-2-yl]methyl}-4-methyl-N-{[(2S)-oxolan-2-yl]methyl}-8-(trifluoromethyl)-4,5-dihydro-2H-furo[2,3-g]indazole-7-carboxamide]
238 nM	Cc1c(C(=O)NC[C@@H]2COCCO2)oc2c1-c1nn(C[C@H]3COCCO3)cc1C(C(F)(F)F)C2 (mixture of isomers) [Example 265, (4±)-N-{[(2R)-1,4-dioxan-2-yl]methyl}-2-{[(2S)-1,4-dioxan-2-yl]methyl}-8-methyl-4-(trifluoromethyl)-4,5-dihydro-2H-furo[2,3-g]indazole-7-carboxamide]
